Each compound was assayed against T1, CCR9 (Homo sapiens, UniProt P51686) (assay: chemotaxis (conventional migration) assay and/or calcium mobilization (calcium flux) assay, TECK-induced, MOLT-4 cells). Conditions: Table 1, assay not specified per compound, read-out: IC50, activity in either or both of the chemotaxis assay and calcium mobilization assays.
T1 construct: CCR9-expressing cells (such as a T cell line MOLT-4 cells); host or cells: MOLT-4
T1 sequence (P51686 1-369): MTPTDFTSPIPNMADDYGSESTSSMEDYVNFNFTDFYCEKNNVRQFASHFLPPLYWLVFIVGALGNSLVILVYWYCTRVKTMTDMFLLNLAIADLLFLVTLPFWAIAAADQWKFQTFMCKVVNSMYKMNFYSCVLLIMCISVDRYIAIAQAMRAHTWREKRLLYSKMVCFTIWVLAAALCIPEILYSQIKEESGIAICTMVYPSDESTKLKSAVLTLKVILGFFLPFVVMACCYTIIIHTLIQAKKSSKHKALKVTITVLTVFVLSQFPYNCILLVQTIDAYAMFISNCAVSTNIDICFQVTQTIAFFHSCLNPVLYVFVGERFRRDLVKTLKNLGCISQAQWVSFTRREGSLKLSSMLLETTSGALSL
Assay type: cell-based
Protocol: MOLT-4 cells were obtained from the American Type Culture Collection (Manassas, Va.) and cultured in RPMI tissue culture medium supplemented with 10% fetal calf serum (FCS) in a humidified 5% CO2 incubator at 37° C. Recombinant human chemokine protein TECK was obtained from R&D Systems (Minneapolis, Minn.). ChemoTX® chemotaxis microchambers were purchased from Neuro Probe (Gaithersburg, Md.). CyQUANT® cell proliferation kits were purchased from Molecular Probes (Eugene, Oreg.). Calcium indicator dye Fluo-4 AM was purchased from Molecular Devices (Mountain View, Calif.).
Conventional migration assay was used to determine the efficacy of potential receptor antagonists in blocking migration mediated through CCR9. This assay was routinely performed using the ChemoTX® microchamber system with a 5-μm pore-sized polycarbonate membrane. To begin such an assay, MOLT-4 cells were harvested by centrifugation of cell suspension at 1000 PRM on a GS-6R Beckman centrifuge. The cell pellet was resuspended in chemotaxis buffer (HBSS with 0.1% BSA) at 5×10^6 cells/mL. Test compounds at desired concentrations were prepared from 10 mM stock solutions by serial dilutions in chemotaxis buffer. An equal volume of cells and compounds were mixed and incubated at room temperature for 15 minutes. Afterwards, 20 μL of the mixture was transferred onto the porous membrane of a migration microchamber, with 29 μL of 50 nM chemokine TECK protein placed at the lower chamber. Following a 150-minute incubation at 37° C., during which cells migrated against the chemokine gradient, the assay was terminated by removing the cell drops from atop the filter. To quantify cells migrated across the membrane, 5 μL of 7× CyQUANT® solution was added to each well in the lower chamber, and the fluorescence signal measured on a Spectrafluor Plus fluorescence plate reader (TECAN, Durham, N.C.). The degree of inhibition was determined by comparing migration signals between compound-treated and untreated cells. IC50 calculation was further performed by non-linear squares regression analysis using Graphpad Prism (Graphpad Software, San Diego, Calif.).
Calcium flux assay measures an increase in intracellular calcium following ligand-induced receptor activation. In the screen of CCR9 antagonists, it was used as a secondary assay carried out on a FLIPR® machine (Molecular Devices, Mountain View, Calif.). To begin an assay, MOLT-4 cells were harvested by centrifugation of cell suspension, and resuspended to 1.5×10^6 cells/mL in HBSS (with 1% fetal calf serum). Cells were then labeled with a calcium indicator dye Fluo-4 AM for 45 minutes at 37° C. with gentle shaking. Following incubation, cells were pelletted, washed once with HBSS and resuspended in the same buffer at a density of 1.6×10^6 cells/mL. One hundred microliters of labeled cells were mixed with 10 μL of test compound at the appropriate concentrations on an assay plate. Chemokine protein TECK was added at a final concentration of 25 nM to activate the receptor. The degree of inhibition was determined by comparing calcium signals between compound-treated and untreated cells. IC50 calculations were further performed by non-linear squares regression analysis using Graphpad Prism (Graphpad Software, San Diego, Calif.).
Activity is provided as follows for either or both of the chemotaxis assay and/or calcium mobilization assays, described above.

SMILES	IC50 [nM]
O=S(=O)(Nc1ccc(Cl)cc1C(O)c1ccncc1)c1ccc(-c2cnco2)cc1 (stereo not drawn)	< 500
CCc1ccc(S(=O)(=O)Nc2ccc(Cl)cc2C(O)c2ccncc2)cc1 (stereo not drawn)	< 500
CC(C)Oc1ccc(S(=O)(=O)Nc2ccc(Cl)cc2C(O)c2ccncc2)cc1 (stereo not drawn)	< 500
CO/N=C(\c1ccncc1)c1cc(Cl)ccc1NS(=O)(=O)c1ccc(C(C)(C)C)cc1	< 500
CO/N=C(/c1ccncc1)c1cc(Cl)ccc1NS(=O)(=O)c1ccc(C(C)(C)C)cc1	< 500

The remaining lines, values ahead:

IC50 [nM]	SMILES
< 500	CC(C)(C)c1ccc(S(=O)(=O)Nc2ccc(Cl)cc2Nc2ccncc2)cc1
< 500	CC(=O)N(c1ccncc1)c1cc(Cl)ccc1NS(=O)(=O)c1ccc(C(C)(C)C)cc1
< 500	CC(C)(C)c1ccc(S(=O)(=O)Nc2ccc(Cl)cc2C(O)c2cccnc2)cc1 (stereo not drawn)
< 500	CC(C)(C)c1ccc(S(=O)(=O)Nc2ccc(Cl)cc2C(O)c2cc[n+]([O-])cc2)cc1 (stereo not drawn)
< 500	C=CC(O)(c1cc[n+]([O-])cc1)c1cc(Cl)ccc1NS(=O)(=O)c1ccc(C(C)(C)C)cc1 (stereo not drawn)
< 500	CC(C)(C)c1ccc(S(=O)(=O)Nc2ccc(Cl)cc2C(N)c2cc[n+]([O-])cc2)cc1 (stereo not drawn)
< 500	CC(C)(C)c1ccc(S(=O)(=O)Nc2ccc(Cl)cc2C(F)(F)c2ccncc2)cc1
< 500	CC(C)(C)c1ccc(S(=O)(=O)Nc2ccc(Cl)cc2C(O)c2ccncc2)cc1 (stereo not drawn)
< 500	CC(C)(C)c1ccc(S(=O)(=O)Nc2ccc(Cl)cc2C(F)(F)c2cc[n+]([O-])cc2)cc1
< 500	CC(C)(C)c1ccc(S(=O)(=O)Nc2ccc(Cl)cc2C(O)c2ccccc2)cc1 (stereo not drawn)
< 500	C=C(c1cc[n+]([O-])cc1)c1cc(Cl)ccc1NS(=O)(=O)c1ccc(C(C)(C)C)cc1

Same assay, conditions: Table 2, assay not specified per compound, read-out: IC50, activity in either or both of the chemotaxis assay and calcium mobilization assays

SMILES	IC50 [nM]
O=S(=O)(Nc1ccc(Cl)cc1-c1nccc2ccccc12)c1ccc(-c2cnco2)cc1	< 2000
CC(C)(C)c1ccc(S(=O)(=O)Nc2ccc(Cl)cc2-c2nnn[nH]2)cc1	< 2000
CC(C)(C)c1ccc(S(=O)(=O)Nc2ccc(Cl)cc2-c2cc3ccccc3cn2)cc1	< 2000
CC(C)(C)c1ccc(S(=O)(=O)Nc2ccc(Cl)cc2-c2nccc3ccccc23)cc1	< 2000

Other lines, results leading:

IC50 [nM]	SMILES
< 2000	CC(C)(C)c1ccc(S(=O)(=O)Nc2ccc(Cl)cc2-c2nccc3c[n+]([O-])ccc23)cc1
< 2000	CC(C)(C)c1ccc(S(=O)(=O)Nc2ccc(Cl)cc2-c2c3ccccc3cc[n+]2[O-])cc1
< 2000	CC(C)(C)c1ccc(S(=O)(=O)Nc2ccc(Cl)cc2-c2ccccn2)cc1

Same assay, conditions: Table 3, assay not specified per compound, read-out: IC50, activity in either or both of the chemotaxis assay and calcium mobilization assays

SMILES	IC50 [nM]
CN(C)C(c1ccncc1)c1cc(Cl)ccc1NS(=O)(=O)c1ccc(C(C)(C)C)cc1 (stereo not drawn)	500 to 5000
CC(=O)c1ccc(S(=O)(=O)Nc2ccc(Cl)cc2C(O)c2cccnc2)cc1 (stereo not drawn)	500 to 5000
CO/N=C(\c1ccccc1)c1cc(Cl)ccc1NS(=O)(=O)c1ccc(C)cc1	500 to 5000
C=C(c1ccccc1)c1cc(Cl)ccc1NS(=O)(=O)c1ccc(C)cc1	500 to 5000

The next lines start with the values.

IC50 [nM]	SMILES
500 to 5000	COC(c1cc[n+]([O-])cc1)c1cc(Cl)ccc1NS(=O)(=O)c1ccc(C(C)(C)C)cc1 (stereo not drawn)
500 to 5000	CC(C)(C)c1ccc(S(=O)(=O)Nc2ccc(Cl)cc2C2(c3cc[n+]([O-])cc3)OCCO2)cc1
500 to 5000	CC(C)(C)c1ccc(S(=O)(=O)Nc2ccc(Cl)cc2C(C)(O)c2cc[n+]([O-])cc2)cc1 (stereo not drawn)
500 to 5000	CC(C)(C)c1ccc(S(=O)(=O)Nc2ccc(Cl)cc2C(C)(C)c2cc[n+]([O-])cc2)cc1

Same assay, conditions: Table 4 (++), assay not specified per compound, read-out: IC50, activity in either or both of the chemotaxis assay and calcium mobilization assays

IC50 [nM]	SMILES
2000 to 10000	COc1ccc(S(=O)(=O)Nc2ccc(Cl)cc2-c2ccccc2OC)cc1
2000 to 10000	COc1ccc(S(=O)(=O)Nc2ccc(Cl)cc2-c2ccc(F)cc2)cc1
2000 to 10000	COc1ccc(S(=O)(=O)Nc2ccc(Cl)cc2-c2ccc(Cl)cc2)cc1
2000 to 10000	COc1ccc(-c2cc(Cl)ccc2NS(=O)(=O)c2ccc(OC)cc2)cc1
2000 to 10000	COc1ccc(S(=O)(=O)Nc2ccc(Cl)cc2-c2ccc(C)cc2)cc1
2000 to 10000	COc1ccc(S(=O)(=O)Nc2ccc(Cl)cc2-c2ccccc2)cc1
2000 to 10000	COc1ccc(S(=O)(=O)Nc2ccc(Cl)cc2-c2cccc(OC)c2)cc1
2000 to 10000	CC(C)(C)c1ccc(S(=O)(=O)Nc2ccccc2-c2ncc(-c3ccccc3)[nH]2)cc1
